Activity calls are given as the source filed them. The rule behind the calls is not given here.
Key:
[1] = test system: Pseudomonas aeruginosa; assay: Bactericidal activity against Pseudomonas aeruginosa JSRI-1 clinical isolate after 12 hrs; assay type: functional; details: JSRI-1, 12 h
[2] = Inhibition of Pseudomonas aeruginosa HemO mutant expressed in Escherichia coli BL21(DE3) assessed as decrease in biliverdin-9alpha-dependent IFP1.4 fluorescence after 16 hrs by spectrophotometric method
[3] = test system: Pseudomonas aeruginosa; assay: Bactericidal activity against Pseudomonas aeruginosa PAO1 after 12 hrs; assay type: functional; details: PAO1, 12 h
[4] = test system: Pseudomonas aeruginosa; assay: Antibacterial activity against Pseudomonas aeruginosa PAO1 after 12 hrs; assay type: functional; details: PAO1, 12 h
[5] = biological target: T1, Heme oxygenase (Pseudomonas aeruginosa, UniProt O69002); assay: Binding affinity to Pseudomonas aeruginosa HemO by intrinsic fluorescence quenching method
T1 sequence (O69002 whole entry): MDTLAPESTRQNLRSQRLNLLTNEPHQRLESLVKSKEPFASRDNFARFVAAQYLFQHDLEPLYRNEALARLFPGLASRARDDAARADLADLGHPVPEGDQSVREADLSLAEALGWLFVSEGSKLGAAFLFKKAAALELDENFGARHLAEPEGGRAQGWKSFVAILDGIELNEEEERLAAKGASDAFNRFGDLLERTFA

[6] = test system: Pseudomonas aeruginosa; assay: Antibacterial activity against Pseudomonas aeruginosa JSRI-2 clinical isolate after 12 hrs; assay type: functional; details: JSRI-2, 12 h
[7] = test system: Pseudomonas aeruginosa; assay: Antibacterial activity against Pseudomonas aeruginosa JSRI-1 clinical isolate after 12 hrs; assay type: functional; details: JSRI-1, 12 h
[8] = test system: Pseudomonas aeruginosa; assay: Bactericidal activity against Pseudomonas aeruginosa JSRI-2 clinical isolate after 12 hrs; assay type: functional; details: JSRI-2, 12 h
[9] = test system: Escherichia coli; assay: Toxicity in Escherichia coli BL21(DE3) expressing Pseudomonas aeruginosa HemO mutant after 16 hrs by phase contrast microscopy
[10] = biological target: T2, Heme oxygenase (Pseudomonas aeruginosa) (UniProt O69002); assay: Binding affinity to Pseudomonas aeruginosa HemO by STD NMR method
T2 sequence (whole entry): T1 sequence (O69002 whole entry)

[11] = biological target: T2, Heme oxygenase (Pseudomonas aeruginosa); assay: Binding affinity to Pseudomonas aeruginosa holo-HemO (53 to 62 residues) at 30 mins by HXMS method

SMILES	MBC [1] [mg/L]	EC50 [2] [µM]	MBC [3] [mg/L]	MIC50 [4] [mg/L]	Kd [5] [µM]	MIC50 [6] [mg/L]	MIC50 [7] [mg/L]	MBC [8] [mg/L]	Activity [9]	Activity [10]	Activity [11]
Cl.NC(N)=N/N=C/c1ccc(Cl)c(Cl)c1	125	20.3	125	32.3	8.4	16.4	24.1	125			
Cl.N=C(N)N/N=C/c1cccc2ccccc12	250	52.4	250	32.1	12	36.1	30.4	125			
Cl.N=C(N)N/N=C/c1ccccc1F	> 1000	> 200	1000	131	11	72.9	28.6	250			
CN(C)c1ccc(/C=N/NC(=N)N)cc1.Cl	1000	123	1000	121	8.8	15.5	32.5	250	Non-Toxic		
COc1ccc(/C=N/NC(=N)N)cc1.Cl	1000	77.4	500	113	7.8	38	30.5	500			
Cl.NC(N)=N/N=C/c1cccc(OCc2ccccc2)c1	125	34.3	125	23.2		33.9	25.5	62.5			
Cl.N=C(N)N/N=C/c1ccc(F)cc1	1000	77.5	1000	162	14	69.4	87.4	500			
Cl.NC(N)=N/N=C/c1cccc(F)c1	1000	45.1	1000	66.6	12	68.2	70	250			
Cl.NC(N)=N/N=C/c1cccc(O)c1		> 200		750	21	617	391				
N=C(N)N/N=C/c1cccc(OCc2ccccc2)c1										Active	
COc1cccc(/C=N/N=C(N)N)c1.Cl	1000		> 1000	134		93.4	48.6	500			
Cl.N=C(N)N/N=C/c1cccc(Cl)c1	500	19.4	250	52.4	8.4	33.5	19.2	250			
Cl.NC(N)=N/N=C/c1ccc(-c2ccccc2)cc1	125	21.9	125	59.1	6.7	38	34.6	62.5			Active
Cl.N=C(N)N/N=C/c1ccc(Cl)cc1	250	122	500	49	7	41.6	10.7	62.5			
Cl.N=C(N)N/N=C/c1ccc(Br)cc1	250	35.6	250	52.5	15	13.4	19.7	62.5			
N=C(N)N/N=C/c1ccccc1Br					6.7						
CC(C)c1ccc(/C=N/NC(=N)N)cc1.Cl	125	11.3	125	52.3	5.7	81	20.6	125			
Cl.N=C(N)N/N=C/c1ccc2ccccc2c1	250	43.1	250	48.4		75.6	31.7	125			
Cl.N=C(N)N/N=C/c1ccc([N+](=O)[O-])cc1	1000	64.4	1000	72.8	6.2	47.2	61.4	125			
Cl.NC(N)=N/N=C/c1cccc(Br)c1	500	11.2	250	51.3	12	19.4	23	125			
Cl.NC(N)=N/N=C/c1cccc(Br)c1O	1000	60.3	500	80.5	8	45.6	145	250			
Cl.NC(N)=N/N=C/c1ccc(O)cc1	> 1000	> 200	> 1000	408	4.8	121	443	> 1000			
Cl.N=C(N)N/N=C/c1ccccc1O	> 1000	102	> 1000	123	9.2	79.1	58.5	250		Active	
Cl.NC(N)=N/N=C/c1cc(O)cc(O)c1		> 200		1140	8	564	338				
COc1ccccc1/C=N/NC(=N)N.Cl	> 1000	72.7	1000	99.5		125	38.4	500		Active	
Cl.NC(N)=N/N=C/c1ccccc1Br	500	35.3	500	50.1		33.4	62.9	250		Active	
